The source made the active and inactive calls. No cut-off for these calls is given here.
Columns and labels:
[1] = test system: A-431; assay: Antiproliferative activity against human A-431 cells measured after 2 days by sulforhodamine B assay; type: functional, cell-based; settings: A-431, 48 h
[2] = test system: MX1; assay: Antitumor activity against human MX1 cells xenografted in athymic nude mouse assessed as tumor growth inhibition; type: functional, cell-based
[3] = test system: BT-474; assay: Cell cycle arrest in human BT-474 cells assessed as up regulation of p27 expression at 1 to 10 nM incubated for 12 to 16 hrs by Western blot analysis; type: functional, cell-based; settings: dose 1-10 nM, time 12-16 hrs
[4] = target: MAP kinase-activated protein kinase 2 (Homo sapiens, UniProt P49137); assay: Inhibition of recombinant MK2 (unknown origin) using peptide as substrate
[5] = test system: BT-474; assay: Cell cycle arrest in human BT-474 cells assessed as accumulation of cells at Sub-G1 phase at 0.2 nM measured after 12 to 16 hrs by propidium iodide staining based flow cytometry (reference value: 8%); type: functional; settings: time 12-16 hrs
[6] = test system: MDA-MB-361; assay: Antiproliferative activity against human MDA-MB-361 cells measured after 2 days by sulforhodamine B assay; type: functional, cell-based; settings: MDA-MB-361, 48 h
[7] = test system: BT-474; assay: Cell cycle arrest in human BT-474 cells assessed as accumulation of cells at S phase at 1 nM measured after 12 to 16 hrs by BrdUrd uptake assay (reference value: 26%); type: functional; settings: time 12-16 hrs
[8] = test system: BT-474; assay: Cell cycle arrest in human BT-474 cells assessed as accumulation of cells at S phase at 0.4 nM measured after 12 to 16 hrs by propidium iodide staining based flow cytometry (reference value: 21%); type: functional; settings: time 12-16 hrs
[9] = Cytotoxicity against mouse 3T3 cells assessed as inhibition of cell proliferation measured after 2 days by sulforhodamine B assay; type: toxicity, cell-based; settings: NIH3T3 (3T3) cells
[10] = target: Cyclin-dependent kinase 2/cyclin E1 (Homo sapiens, UniProt P24941); assay: Inhibition of recombinant CDK2/cyclin E (unknown origin) using protein as substrate; type: protein-complex assay
[11] = test system: A-431; assay: Antitumor activity against human A-431 cells xenografted in athymic nude mouse assessed as tumor growth inhibition at 5 mg/kg, po administered daily for 10 days via gavage and measured on day 15 relative to control; type: functional; settings: A-431, 360 h, time 15 day, read-out: TGI
[12] = target: T1, Receptor tyrosine-protein kinase erbB-2 (Homo sapiens, UniProt P04626); assay: Inhibition of [14C]HKI-272 binding to HER2 in human BT-474 cells at 5 uM measured after 15 mins by fluorography; type: cell-based
T1 sequence (P04626 whole entry): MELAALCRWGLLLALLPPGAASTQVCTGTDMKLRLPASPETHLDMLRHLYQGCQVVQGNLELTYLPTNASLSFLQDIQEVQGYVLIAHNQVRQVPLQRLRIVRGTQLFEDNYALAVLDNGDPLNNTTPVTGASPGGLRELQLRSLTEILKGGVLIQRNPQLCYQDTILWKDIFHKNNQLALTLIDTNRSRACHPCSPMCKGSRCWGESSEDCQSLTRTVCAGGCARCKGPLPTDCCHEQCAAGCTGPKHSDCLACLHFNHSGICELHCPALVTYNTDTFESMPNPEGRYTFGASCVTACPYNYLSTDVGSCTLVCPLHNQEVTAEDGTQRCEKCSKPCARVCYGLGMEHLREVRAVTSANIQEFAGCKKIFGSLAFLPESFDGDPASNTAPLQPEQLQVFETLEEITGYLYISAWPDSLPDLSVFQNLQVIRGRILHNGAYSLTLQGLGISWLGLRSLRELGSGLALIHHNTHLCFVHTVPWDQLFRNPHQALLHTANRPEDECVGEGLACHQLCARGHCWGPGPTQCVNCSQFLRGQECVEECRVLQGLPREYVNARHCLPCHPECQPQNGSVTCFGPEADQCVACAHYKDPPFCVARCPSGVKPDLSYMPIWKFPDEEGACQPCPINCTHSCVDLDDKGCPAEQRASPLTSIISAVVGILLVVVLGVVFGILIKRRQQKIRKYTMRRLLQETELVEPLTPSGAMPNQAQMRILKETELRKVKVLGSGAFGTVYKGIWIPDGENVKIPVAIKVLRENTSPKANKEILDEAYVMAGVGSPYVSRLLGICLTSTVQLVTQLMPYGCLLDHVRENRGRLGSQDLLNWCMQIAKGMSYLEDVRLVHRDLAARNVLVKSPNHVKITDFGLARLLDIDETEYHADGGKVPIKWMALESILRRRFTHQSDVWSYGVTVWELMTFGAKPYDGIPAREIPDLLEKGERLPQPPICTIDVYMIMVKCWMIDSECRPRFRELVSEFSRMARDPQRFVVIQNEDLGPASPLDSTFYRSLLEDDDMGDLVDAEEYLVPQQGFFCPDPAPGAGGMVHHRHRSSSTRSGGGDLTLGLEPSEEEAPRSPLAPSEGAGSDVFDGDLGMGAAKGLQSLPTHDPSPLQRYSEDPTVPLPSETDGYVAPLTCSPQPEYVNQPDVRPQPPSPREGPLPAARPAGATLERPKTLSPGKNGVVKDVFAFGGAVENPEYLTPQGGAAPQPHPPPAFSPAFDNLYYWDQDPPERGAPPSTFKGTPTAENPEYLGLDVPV

[13] = target: Hepatocyte growth factor receptor (Homo sapiens, UniProt P08581); assay: Inhibition of recombinant c-Met autophosphorylation (unknown origin)
Hepatocyte growth factor receptor, sequence (P08581 whole entry): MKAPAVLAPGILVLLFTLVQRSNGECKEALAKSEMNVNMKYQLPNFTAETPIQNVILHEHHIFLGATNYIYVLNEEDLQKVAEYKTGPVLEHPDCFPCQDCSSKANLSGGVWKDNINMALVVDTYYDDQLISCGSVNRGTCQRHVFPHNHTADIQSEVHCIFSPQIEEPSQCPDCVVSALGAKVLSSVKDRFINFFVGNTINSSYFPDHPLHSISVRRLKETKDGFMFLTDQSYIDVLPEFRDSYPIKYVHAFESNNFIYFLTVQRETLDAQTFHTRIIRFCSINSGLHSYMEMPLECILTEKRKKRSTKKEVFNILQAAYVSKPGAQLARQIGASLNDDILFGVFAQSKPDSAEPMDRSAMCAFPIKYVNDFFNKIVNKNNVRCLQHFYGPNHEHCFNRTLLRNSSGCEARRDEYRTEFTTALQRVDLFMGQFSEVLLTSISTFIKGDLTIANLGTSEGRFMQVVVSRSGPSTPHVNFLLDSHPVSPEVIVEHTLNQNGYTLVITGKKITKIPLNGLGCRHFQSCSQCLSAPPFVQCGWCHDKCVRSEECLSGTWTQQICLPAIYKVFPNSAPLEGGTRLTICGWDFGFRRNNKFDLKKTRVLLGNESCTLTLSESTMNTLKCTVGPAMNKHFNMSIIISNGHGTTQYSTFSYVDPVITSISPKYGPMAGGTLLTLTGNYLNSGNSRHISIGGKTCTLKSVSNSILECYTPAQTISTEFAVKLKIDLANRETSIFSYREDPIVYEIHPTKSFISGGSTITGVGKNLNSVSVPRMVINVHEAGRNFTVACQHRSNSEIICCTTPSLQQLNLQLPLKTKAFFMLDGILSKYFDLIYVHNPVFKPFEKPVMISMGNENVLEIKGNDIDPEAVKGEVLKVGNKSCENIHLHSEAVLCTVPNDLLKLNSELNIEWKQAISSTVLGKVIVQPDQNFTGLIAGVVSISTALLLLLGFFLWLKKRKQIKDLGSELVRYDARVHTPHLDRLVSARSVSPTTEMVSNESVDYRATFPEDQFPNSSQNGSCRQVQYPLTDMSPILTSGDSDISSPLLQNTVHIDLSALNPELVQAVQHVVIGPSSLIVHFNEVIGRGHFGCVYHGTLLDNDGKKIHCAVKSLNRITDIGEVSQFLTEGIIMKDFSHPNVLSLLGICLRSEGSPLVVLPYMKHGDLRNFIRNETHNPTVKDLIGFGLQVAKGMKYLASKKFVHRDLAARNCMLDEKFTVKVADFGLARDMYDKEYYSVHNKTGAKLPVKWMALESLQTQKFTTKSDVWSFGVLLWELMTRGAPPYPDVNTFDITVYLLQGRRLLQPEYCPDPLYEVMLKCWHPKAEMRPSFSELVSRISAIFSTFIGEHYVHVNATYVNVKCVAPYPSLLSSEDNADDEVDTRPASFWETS

[14] = test system: BT-474; assay: Cell cycle arrest in human BT-474 cells assessed as accumulation of cells at S phase at 0.4 nM measured after 12 to 16 hrs by BrdUrd uptake assay (reference value: 26%); type: functional; settings: time 12-16 hrs
[15] = target: Mitogen-activated protein kinase kinase kinase 8 (Homo sapiens, UniProt P41279); assay: Inhibition of recombinant Tpl-2 (unknown origin) using peptide as substrate
Mitogen-activated protein kinase kinase kinase 8, sequence (P41279 whole entry): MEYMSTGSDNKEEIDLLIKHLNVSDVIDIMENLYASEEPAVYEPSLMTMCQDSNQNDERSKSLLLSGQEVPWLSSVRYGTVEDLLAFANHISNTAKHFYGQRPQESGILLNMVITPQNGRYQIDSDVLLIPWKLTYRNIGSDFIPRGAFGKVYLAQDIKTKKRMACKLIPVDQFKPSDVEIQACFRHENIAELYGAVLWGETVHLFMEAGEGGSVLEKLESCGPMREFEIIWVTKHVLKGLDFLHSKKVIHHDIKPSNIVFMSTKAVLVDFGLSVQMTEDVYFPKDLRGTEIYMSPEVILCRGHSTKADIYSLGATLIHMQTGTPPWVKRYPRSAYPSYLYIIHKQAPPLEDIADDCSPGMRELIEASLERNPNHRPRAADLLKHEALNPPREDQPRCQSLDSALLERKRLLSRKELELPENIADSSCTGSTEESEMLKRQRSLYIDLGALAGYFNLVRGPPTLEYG

[16] = test system: BT-474; assay: Cell cycle arrest in human BT-474 cells assessed as accumulation of cells at G2/M phase at 1 nM measured after 12 to 16 hrs by propidium iodide staining based flow cytometry (reference value: 11%); type: functional; settings: time 12-16 hrs
[17] = test system: BT-474; assay: Cell cycle arrest in human BT-474 cells assessed as accumulation of cells at G2/M phase at 2 nM measured after 12 to 16 hrs by propidium iodide staining based flow cytometry (reference value: 11%); type: functional; settings: time 12-16 hrs
[18] = test system: BT-474; assay: Cell cycle arrest in human BT-474 cells assessed as accumulation of cells at S phase at 0.2 nM measured after 12 to 16 hrs by propidium iodide staining based flow cytometry (reference value: 21%); type: functional; settings: time 12-16 hrs
[19] = test system: BT-474; assay: Cell cycle arrest in human BT-474 cells assessed as accumulation of cells at Sub-G1 phase at 2 nM measured after 12 to 16 hrs by propidium iodide staining based flow cytometry (reference value: 8%); type: functional; settings: time 12-16 hrs
[20] = target: T1, Receptor tyrosine-protein kinase erbB-2; assay: Irreversible inhibition of HER2 autophosphorylation in human BT-474 cells at 1 uM incubated for 3 hrs followed by compound washout and further incubated for 5 hrs by Western blot analysis relative to control; type: cell-based
[21] = target: Cyclin-dependent kinase 1/cyclin B1 (Homo sapiens, UniProt P06493); assay: Inhibition of recombinant CDK1/cyclin B1 (unknown origin) using protein as substrate; type: protein-complex assay
[22] = In vivo inhibition of HER2 autophosphorylation in human BT-474 cells xenografted athymic nude mouse at 40 mg/kg, po administered as single dose via gavage measured after 24 hrs by immunoblot analysis relative to control; type: functional
[23] = target: Epidermal growth factor receptor (Homo sapiens, UniProt P00533); assay: Inhibition of EGF-induced EGFR phosphorylation in human A-431 cells at 1 uM incubated for 3 hrs followed by compound washout and further incubated for 5 hrs by Western blot analysis relative to control; type: cell-based
Epidermal growth factor receptor, sequence (P00533 whole entry): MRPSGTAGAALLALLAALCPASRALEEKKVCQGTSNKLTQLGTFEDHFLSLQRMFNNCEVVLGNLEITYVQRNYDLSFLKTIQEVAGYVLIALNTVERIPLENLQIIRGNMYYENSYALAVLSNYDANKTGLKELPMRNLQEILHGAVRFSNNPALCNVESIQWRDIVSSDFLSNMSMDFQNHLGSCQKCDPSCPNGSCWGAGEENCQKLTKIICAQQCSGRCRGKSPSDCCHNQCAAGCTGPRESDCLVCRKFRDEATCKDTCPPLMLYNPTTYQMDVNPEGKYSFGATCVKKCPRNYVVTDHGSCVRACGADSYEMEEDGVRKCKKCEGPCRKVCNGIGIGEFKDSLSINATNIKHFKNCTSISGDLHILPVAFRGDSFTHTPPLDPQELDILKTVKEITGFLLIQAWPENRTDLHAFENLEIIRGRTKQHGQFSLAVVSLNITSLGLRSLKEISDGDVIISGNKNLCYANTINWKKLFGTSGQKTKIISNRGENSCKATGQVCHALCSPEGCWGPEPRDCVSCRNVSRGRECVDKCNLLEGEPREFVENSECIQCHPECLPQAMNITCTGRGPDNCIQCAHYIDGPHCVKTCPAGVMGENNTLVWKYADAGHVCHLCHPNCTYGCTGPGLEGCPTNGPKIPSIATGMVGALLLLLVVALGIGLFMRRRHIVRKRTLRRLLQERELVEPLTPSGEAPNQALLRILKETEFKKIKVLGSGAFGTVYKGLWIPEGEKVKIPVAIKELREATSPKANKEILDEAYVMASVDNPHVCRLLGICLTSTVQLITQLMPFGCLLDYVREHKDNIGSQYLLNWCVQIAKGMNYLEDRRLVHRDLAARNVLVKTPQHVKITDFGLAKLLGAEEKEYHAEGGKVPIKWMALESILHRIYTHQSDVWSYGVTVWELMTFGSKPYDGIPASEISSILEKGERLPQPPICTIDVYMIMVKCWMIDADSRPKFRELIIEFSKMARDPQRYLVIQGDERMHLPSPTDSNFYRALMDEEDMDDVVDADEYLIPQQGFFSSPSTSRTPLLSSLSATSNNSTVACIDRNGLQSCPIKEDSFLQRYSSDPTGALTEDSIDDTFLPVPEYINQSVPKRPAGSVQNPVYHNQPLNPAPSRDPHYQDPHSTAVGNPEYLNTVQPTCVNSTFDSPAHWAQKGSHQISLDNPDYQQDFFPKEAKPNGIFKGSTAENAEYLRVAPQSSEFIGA

[24] = test system: BT-474; assay: Cell cycle arrest in human BT-474 cells assessed as down regulation of Rb expression at 1 to 10 nM incubated for 12 to 16 hrs by Western blot analysis; type: functional, cell-based; settings: dose 1-10 nM, time 12-16 hrs
[25] = test system: BT-474; assay: Cell cycle arrest in human BT-474 cells assessed as down regulation of cyclin D1 expression incubated for 12 to 16 hrs by Western blot analysis; type: functional, cell-based
[26] = test system: SK-OV-3; assay: Antitumor activity against human SK-OV-3 cells xenografted in athymic nude mouse assessed as tumor growth inhibition at 5 mg/kg, po administered daily for 20 days via gavage and measured on day 21 relative to control; type: functional; settings: SK-OV-3, 504 h, time 21 day, read-out: TGI
[27] = target: T1, Receptor tyrosine-protein kinase erbB-2; assay: Binding affinity to HER2 in human […] cells at 1 uM measured after 15 mins by immunoprecipitation assay; type: cell-based; settings: BT-474
[28] = species: Homo sapiens; assay: Selectivity ratio of IC50 for recombinant KDR (unknown origin) to IC50 for recombinant N-terminal His6-tagged HER2 cytoplasmic domain (676 to 1255 residues)(unknown origin) expressed in baculovirus infected Sf9 insect cells
[29] = test system: MCF7; assay: Antitumor activity against human MCF7 cells xenografted in athymic nude mouse assessed as tumor growth inhibition up to 80 mg/kg, po administered daily for 20 days via gavage and measured on day 28 relative to control; type: functional; settings: time 28 day
[30] = Toxicity in human BT-474 cells xenografted athymic nude mouse assessed as body weight loss at 10 to 40 mg/kg, po administered daily via gavage for 20 days; type: organism-based; settings: in vivo, 480 h, dose 10-40 mg/kg, time 20 day
[31] = test system: SW-620; assay: Antiproliferative activity against human SW620 cells measured after 2 days by sulforhodamine B assay; type: functional, cell-based; settings: SW-620, 48 h
[32] = test system: BT-474; assay: Cell cycle arrest in human BT-474 cells assessed as accumulation of cells at S phase at 1 nM measured after 12 to 16 hrs by propidium iodide staining based flow cytometry (reference value: 21%); type: functional; settings: time 12-16 hrs
[33] = target: Proto-oncogene tyrosine-protein kinase Src (Homo sapiens, UniProt P12931); assay: Inhibition of recombinant Src (unknown origin) using peptide as substrate
Proto-oncogene tyrosine-protein kinase Src, sequence (P12931 2-536 limits assumed): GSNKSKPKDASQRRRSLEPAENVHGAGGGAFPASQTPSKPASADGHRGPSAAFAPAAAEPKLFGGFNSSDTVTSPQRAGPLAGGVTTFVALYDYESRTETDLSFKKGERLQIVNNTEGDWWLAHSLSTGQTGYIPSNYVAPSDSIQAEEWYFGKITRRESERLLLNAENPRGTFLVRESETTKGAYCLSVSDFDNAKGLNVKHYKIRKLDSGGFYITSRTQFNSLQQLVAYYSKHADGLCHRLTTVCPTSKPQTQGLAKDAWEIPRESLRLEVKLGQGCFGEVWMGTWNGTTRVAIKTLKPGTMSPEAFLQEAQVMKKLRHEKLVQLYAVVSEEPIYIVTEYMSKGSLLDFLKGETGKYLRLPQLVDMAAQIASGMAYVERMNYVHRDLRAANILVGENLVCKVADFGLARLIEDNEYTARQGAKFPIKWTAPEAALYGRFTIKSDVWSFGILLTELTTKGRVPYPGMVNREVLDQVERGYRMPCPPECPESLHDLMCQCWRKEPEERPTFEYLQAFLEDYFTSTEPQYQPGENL

[34] = test system: BT-474; assay: Antitumor activity against human BT-474 cells xenografted in athymic nude mouse assessed as tumor growth inhibition at 5 mg/kg, po administered daily for 20 days via gavage and measured on day 21 relative to control; type: functional; settings: BT-474, 504 h, time 21 day, read-out: TGI

For `COc1cc2ncc(C#N)c(Nc3ccc(OCc4ccccn4)c(Cl)c3)c2cc1NC(=O)/C=C/CN(C)C`, the IC50 [1] was 81 nM, the TGI [2] was “inactive” and the Activity [3] was “Active”. It also gave an IC50 [4] of over 45000 nM, an Activity [5] of 9% and an IC50 [6] of 190 nM. The Activity [7] was 12%, the Activity [8] was 12% and the IC50 at 2 days [9] was 700 nM. The IC50 [10] was over 18000 nM, the inhibition in vivo at 5 mg/kg [11] was 32% and the inhibition [12] was “Active”. The IC50 [13] was over 35000 nM, the Activity [14] was 14% and the IC50 [15] was over 18000 nM. For the same compound, the Activity [16] was 14%, the Activity [17] was 11% and the Activity [18] was 16%. For the same compound, the Activity [19] was 11%, the inhibition [20] was 97% and the IC50 [21] was over 18000 nM. The inhibition in vivo at 40 mg/kg [22] was 43%, the inhibition [23] was 105% and the Activity [24] was “Active”. The IC50 [25] was 9 nM, the inhibition in vivo at 5 mg/kg [26] was 31% and the Activity [27] was “Active”. The Ratio IC50 [28] was 14, the TGI [29] was 28% and the Activity [30] was “Non-Toxic”. The IC50 [31] was 690 nM, the Activity [32] was 10% and the IC50 [33] was 1400 nM. The inhibition in vivo at 5 mg/kg [34] was 70%.

From ChEMBL document CHEMBL5661967, “Antitumor activity of HKI-272, an orally active, irreversible inhibitor of the HER-2 tyrosine kinase” (Cancer Res, 2004)
